US20230127944A1, “BROAD-SPECTRUM CARBAPENEMS” (priority 2019, published 2023)
≈ marks a conversion by molar mass, not a printed value.

Legend:
Format in all cases: cell-based
S. aureus USA 600 = experiment: broth microdilution MIC assay, S. aureus USA600; conditions: Staphylococcus aureus; S. aureus USA600 (MRSA); read-out: MIC, S. aureus USA600
Outline: (§1)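 Steps: ≥5 colonies into cation-supplemented MH broth, shaken 3-5 h at 37° C; OD600-adjusted inoculum added to 2-fold compound dilutions (5×10^5 CFU/mL final); 16-20 h incubation at 37° C; visual MIC endpoint (no growth).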

[1] = tested on: S. aureus ATCC 33591 (methicillin-resistant); experiment: broth microdilution MIC assay, S. aureus 33591; conditions: Staphylococcus aureus, ATCC33591; S. aureus 33591, methicillin-resistant; read-out: MIC, S. aureus 33591
Outline: as §1

[2] = tested on: E. coli ATCC 25922 (wild-type/QC strain); experiment: broth microdilution MIC assay, E. coli 25922; conditions: Escherichia coli, ATCC25922; read-out: MIC, E. coli 25922
Outline: as §1

P. aeruginosa Paeβ-17 = experiment: broth microdilution MIC assay, P. aeruginosa Paeβ-17; conditions: Pseudomonas aeruginosa, read-out: MIC, P. aeruginosa Paeβ-17
Outline: as §1

S. aureus USA 300 = experiment: broth microdilution MIC assay, S. aureus USA300; conditions: Staphylococcus aureus; S. aureus USA300 (MRSA); read-out: MIC, S. aureus USA300
Outline: as §1

[3] = tested on: P. aeruginosa ATCC 27853 (wild-type/QC strain); experiment: broth microdilution MIC assay, P. aeruginosa 27853; conditions: Pseudomonas aeruginosa, ATCC27853; read-out: MIC, P. aeruginosa 27853
Outline: as §1

[4] = tested on: P. aeruginosa ΔmexAB-OprM (an efflux pump knockout); experiment: broth microdilution MIC assay, P. aeruginosa ΔmexAB-OprM; conditions: Pseudomonas aeruginosa, read-out: MIC, P. aeruginosa ΔmexAB-OprM
Outline: as §1

[5] = tested on: P. aeruginosa 35151 (hyper-permeable strain); experiment: broth microdilution MIC assay, P. aeruginosa 35151; conditions: Pseudomonas aeruginosa, read-out: MIC, P. aeruginosa 35151
Outline: as §1

For `C[C@@H](O)[C@H]1C(=O)N2C(C(=O)O)=C(S[C@H]3C[C@@H](N[C@H]4CC[C@H](N)C4)C3)[C@H](C)[C@H]12` [Example 75, (4R,5S,6S)-3-(((1R,3S)-3-(((1S,3S)-3-aminocyclopentyl)amino)cyclobutyl)thio)-6-((R)-1-hydroxyethyl)-4-methyl-7-oxo-1-azabicyclo[3.2.0]hept-2-ene-2-carboxylic acid], the MIC (S. aureus USA 600) was 1 to 4 µg/mL (≈ 2.53 to 10.1 µM), the MIC [1] was 8 to 32 µg/mL (≈ 20.2 to 80.9 µM) and the MIC [2] was less than 1 µg/mL. It also gave an MIC (P. aeruginosa Paeβ-17) of 1 to 4 µg/mL (≈ 2.53 to 10.1 µM), an MIC (S. aureus USA 300) of 1 to 4 µg/mL (≈ 2.53 to 10.1 µM) and an MIC [3] of 1 to 4 µg/mL (≈ 2.53 to 10.1 µM). The MIC [4] was 8 to 32 µg/mL (≈ 20.2 to 80.9 µM) and the MIC [5] was less than 1 µg/mL.
In the case of `C[C@@H](O)[C@H]1C(=O)N2C(C(=O)O)=C(S[C@H]3C[C@@H](N[C@@H]4CC[C@@H](N)C4)C3)[C@H](C)[C@H]12` [Example 78, (4R,5S,6S)-3-(((1S,3S)-3-(((1R,3R)-3-aminocyclopentyl)amino)cyclobutyl)thio)-6-((R)-1-hydroxyethyl)-4-methyl-7-oxo-1-azabicyclo[3.2.0]hept-2-ene-2-carboxylic acid], the MIC (S. aureus USA 600) is reported as 1 to 4 µg/mL (≈ 2.53 to 10.1 µM), the MIC [1] is reported as 8 to 32 µg/mL (≈ 20.2 to 80.9 µM) and the MIC [2] is reported as less than 1 µg/mL. It also gave an MIC (P. aeruginosa Paeβ-17) of 1 to 4 µg/mL (≈ 2.53 to 10.1 µM), an MIC (S. aureus USA 300) of 1 to 4 µg/mL (≈ 2.53 to 10.1 µM) and an MIC [3] of 1 to 4 µg/mL (≈ 2.53 to 10.1 µM). It also gave an MIC [4] of 8 to 32 µg/mL (≈ 20.2 to 80.9 µM) and an MIC [5] of less than 1 µg/mL.
For `C[C@@H](O)[C@H]1C(=O)N2C(C(=O)O)=C(SC3CN([C@H]4CC[C@H](N)C4)C3)[C@H](C)[C@H]12` [Example 5, (4R,5S,6S)-3-((1-((1S,3S)-3-aminocyclopentyl)azetidin-3-yl)thio)-6-((R)-1-hydroxyethyl)-4-methyl-7-oxo-1-azabicyclo[3.2.0]hept-2-ene-2-carboxylic acid], the MIC (S. aureus USA 600) was 1 to 4 µg/mL (≈ 2.62 to 10.5 µM), the MIC [1] was 1 to 4 µg/mL (≈ 2.62 to 10.5 µM) and the MIC [2] was less than 1 µg/mL. For the same compound, the MIC (P. aeruginosa Paeβ-17) was 8 to 32 µg/mL (≈ 21 to 83.9 µM), the MIC (S. aureus USA 300) was 1 to 4 µg/mL (≈ 2.62 to 10.5 µM) and the MIC [3] was 1 to 4 µg/mL (≈ 2.62 to 10.5 µM). The MIC [4] was 1 to 4 µg/mL (≈ 2.62 to 10.5 µM) and the MIC [5] was less than 1 µg/mL.
Work on `C[C@@H](O)[C@H]1C(=O)N2C(C(=O)O)=C(S[C@H]3C[C@H](NC4CCN(C(=N)N)CC4)C3)[C@H](C)[C@H]12` [Example 48, (4R,5S,6S)-3-(((1R,3R)-3-((1-carbamimidoylpiperidin-4-yl)amino)cyclobutyl)thio)-6-((R)-1-hydroxyethyl)-4-methyl-7-oxo-1-azabicyclo[3.2.0]hept-2-ene-2-carboxylic acid] yielded an MIC (S. aureus USA 600) of 1 to 4 µg/mL (≈ 2.29 to 9.14 µM), an MIC [1] of 8 to 32 µg/mL (≈ 18.3 to 73.1 µM) and an MIC [2] of less than 1 µg/mL. It also gave an MIC (P. aeruginosa Paeβ-17) of 8 to 32 µg/mL (≈ 18.3 to 73.1 µM), an MIC (S. aureus USA 300) of 1 to 4 µg/mL (≈ 2.29 to 9.14 µM) and an MIC [3] of 8 to 32 µg/mL (≈ 18.3 to 73.1 µM). For the same compound, the MIC [4] was 1 to 4 µg/mL (≈ 2.29 to 9.14 µM) and the MIC [5] was less than 1 µg/mL.
Compound `C[C@@H](O)[C@H]1C(=O)N2C(C(=O)O)=C(SC3CN([C@H]4CCC[C@@H](N)C4)C3)[C@H](C)[C@H]12` [Example 15, (4R,5S,6S)-3-((1-((1S,3R)-3-aminocyclohexyl)azetidin-3-yl)thio)-6-((R)-1-hydroxyethyl)-4-methyl-7-oxo-1-azabicyclo[3.2.0]hept-2-ene-2-carboxylic acid] has an MIC (S. aureus USA 600) of 1 to 4 µg/mL (≈ 2.53 to 10.1 µM), an MIC [1] of 8 to 32 µg/mL (≈ 20.2 to 80.9 µM) and an MIC [2] of less than 1 µg/mL. For the same compound, the MIC (P. aeruginosa Paeβ-17) was 8 to 32 µg/mL (≈ 20.2 to 80.9 µM), the MIC (S. aureus USA 300) was 1 to 4 µg/mL (≈ 2.53 to 10.1 µM) and the MIC [3] was 1 to 4 µg/mL (≈ 2.53 to 10.1 µM). The MIC [4] was 1 to 4 µg/mL (≈ 2.53 to 10.1 µM) and the MIC [5] was less than 1 µg/mL.
`C[C@@H](O)[C@H]1C(=O)N2C(C(=O)O)=C(SC3CN([C@@H]4CCC[C@@H](N)C4)C3)[C@H](C)[C@H]12` [Example 16, (4R,5S,6S)-3-((1-((1R,3R)-3-aminocyclohexyl)azetidin-3-yl)thio)-6-((R)-1-hydroxyethyl)-4-methyl-7-oxo-1-azabicyclo[3.2.0]hept-2-ene-2-carboxylic acid] showed an MIC (S. aureus USA 600) of 1 to 4 µg/mL (≈ 2.53 to 10.1 µM), an MIC [1] of 8 to 32 µg/mL (≈ 20.2 to 80.9 µM) and an MIC [2] of less than 1 µg/mL. The MIC (P. aeruginosa Paeβ-17) was 8 to 32 µg/mL (≈ 20.2 to 80.9 µM), the MIC (S. aureus USA 300) was 1 to 4 µg/mL (≈ 2.53 to 10.1 µM) and the MIC [3] was 8 to 32 µg/mL (≈ 20.2 to 80.9 µM). For the same compound, the MIC [4] was 1 to 4 µg/mL (≈ 2.53 to 10.1 µM) and the MIC [5] was less than 1 µg/mL.
